Experimental data published in patent US12077483B2, “Modified amine lipids” (Intellia Therapeutics, Inc., priority 2018, dated 2024).

Key:
[1] = pKa of amine lipid by TNS fluorescence; format: physicochemical; settings: probe TNS (6-(p-toluidino)-2-naphthalenesulfonic acid sodium salt), unformulated amine lipid in ethanol, sodium phosphate buffers -9.0
Method in brief: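 Unformulated amine lipid, about 100 μM final, in 0.1 M sodium phosphate buffers spanning pH 4.5–9.0 with TNS. Fluorescence read at ex 321/em 448 nm; normalized data fitted sigmoidally to give pKa.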

mouse TTR = experiment: Serum TTR ELISA in mice after LNP delivery; format: in vivo; settings: for Serum TTR: Exp. 1, 8, 9, 10
Method in brief: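 Female CD-1 mice received LNP at 0.1 mpk unless noted; serum was collected 6 or 7 days later. Total serum TTR was measured by mouse prealbumin ELISA at 10,000- and/or 2,500-fold dilution and is expressed as a percentage of vehicle control.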

TTR in HUH7 cells = experiment: In vitro editing in HUH7 cells, LNP with Cas9 mRNA and sgRNA G000502, NGS; format: cell-based, human; settings: Table 14; 2000 ng RNA per well, cells harvested 6 hours post-transfection, biological duplicate, G000502 target locus
Experimental: A series of compounds based on Compound 46 that vary by the inclusion of a C4-12 alkyl at the R^3 position of Formula (IA) (as illustrated in FIG. 13A) were tested for in vitro editing. The human hepatocellular carcinoma cell line […] (Japanese Collection of Research Bioresources Cell Bank, Cat. JCRB0403) was cultured in DMEM media supplemented with 10% fetal bovine serum and 1% Penicillin-Streptomycin. Cells were plated at a density of 20,000 cells/well in a 96-well plate 24 hours prior to transfection (˜80% confluent at time of transfection). The LNPs were formulated at a 1:2 w/w ratio of sgRNA and Cas9 mRNA using the cross flow procedure with lipid molar compositions as described in Table 13 at an N/P ratio of 6.0. LNP compositions were analyzed for average particle size, polydispersity (pdi), total RNA content and encapsulation efficiency of RNA as described in Example 115. Analysis of average particle size, polydispersity (PDI), total RNA content and encapsulation efficiency of RNA are shown in Table 13. LNPs were diluted into media, incubated for 5 minutes at 37 C and pipetted onto cells at a dose of 2000 ng RNA per well. Each condition was assayed in biological duplicate. Cells were harvested post-transfection at 6 hours. Genomic DNA was extracted using 50 μL/well BuccalAmp DNA Extraction solution (Epicentre, Cat. QE09050) according to manufacturer's protocol. All DNA samples were subjected to PCR and subsequent NGS analysis for editing at the G000502 target locus, as described above. As shown in Table 14 and FIG. 13B, all compounds tested were efficacious for in vitro editing.

[2] = LNP average particle size and polydispersity by dynamic light scattering; format: physicochemical; settings: Table 13; LNP sgRNA:Cas9 mRNA 1:2 w/w, N/P 6.0
Method in brief: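 LNPs were diluted in PBS to a count rate of about 200-400 kcps and measured by DLS on a Zetasizer. Size is the intensity-weighted Z-average diameter, reported with number-average diameter, and the polydispersity index describes the spread of sizes around the mean.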

[3] = RNA encapsulation efficiency of LNP (Ribogreen fluorescence assay); format: physicochemical; settings: Table 13; LNP sgRNA:Cas9 mRNA 1:2 w/w, N/P 6.0
Method in brief: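 LNP samples diluted in 1× TE with or without 0.2% Triton-X 100 for total or free RNA, stained ~10 min at room temperature in the dark with RiboGreen; fluorescence ex 488/em 525 nm against RNA standard curves. Encapsulation efficiency = (Total RNA−Free RNA)/Total RNA.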

mouse TTR gene = experiment: In vivo editing in mouse liver, LNP with Cas9 mRNA and sgRNA G282, NGS; settings: Table 3; guide G282; CD-1 female mice, 0.1 mpk i.v., liver at 6 or 7 days; Exp. 1, 8, 9, 10
Experimental: LNPs were prepared using various amine lipids in a 4-component lipid system consisting of an ionizable lipid (e.g. an amine lipid), DSPC, cholesterol and PEG-2k-DMG. In assays for percent liver editing in mice, Cas9 mRNA and chemically modified sgRNA targeting a mouse sequence were formulated in LNPs, at either a 1:1 w/w ratio or a 1:2 w/w ratio.
The lipid components were dissolved in 100% ethanol with the lipid component molar ratios described below. The chemically modified sgRNA and Cas9 mRNA were combined and dissolved in 25 mM citrate, 100 mM NaCl, pH 5.0, resulting in a concentration of total RNA cargo of approximately 0.45 mg/mL. The LNPs were formulated with an N/P ratio of about 6, with the ratio of chemically modified sgRNA: Cas9 mRNA at either a 1:1 or 1:2 w/w ratio as described below.
CD-1 female mice, ranging from 6-10 weeks of age were used in each study. Animals were weighed and grouped according to body weight for preparing dosing solutions based on group average weight. LNPs were dosed via the lateral tail vein in a volume of 0.2 mL per animal (approximately 10 mL per kilogram body weight). The animals were periodically observed for adverse effects for at least 24 hours post dose.
For studies measuring in vivo editing in liver, CD-1 female mice were dosed at 0.1 mpk unless otherwise noted. Animals were euthanized at 6 or 7 days by exsanguinationvia cardiac puncture under isoflourane anesthesia. Liver tissue was collected from each animal for DNA extraction and analysis. Blood was collected into serum separator tubes or into tubes containing buffered sodium citrate for plasma as described herein. Cohorts of mice were measured for editing by Next-Generation Sequencing (NGS).
In brief, to quantitatively determine the efficiency of editing at the target location in the genome, genomic DNA was isolated and deep sequencing was utilized to identify the presence of insertions and deletions introduced by gene editing.
PCR primers were designed around the target site (e.g., B2M), and the genomic area of interest was amplified. Additional PCR was performed according to the manufacturer's protocols (Illumina) to add the necessary chemistry for sequencing. The amplicons were sequenced on an Illumina MiSeq instrument. The reads were aligned to the relevant reference genome (e.g., GRCm38) after eliminating those having low quality scores. The resulting files containing the reads were mapped to the reference genome (BAM files), where reads that overlapped the target region of interest were selected and the number of wild type reads versus the number of reads which contain an insertion, substitution, or deletion was calculated.
The editing percentage (e.g., the “editing efficiency” or “percent editing”) is defined as the total number of sequence reads with insertions or deletions over the total number of sequence reads, including wild type.
We assessed in vivo editing efficiency for materials delivered with formulations including various amine lipid compounds. Editing was measured using either G282 (SEQ ID No: 1) which targets the mouse TTR gene or G650 (SEQ ID No. 2) which targets the mouse B2M gene. Lipids described above were assessed for efficacy through in vivo editing experiments. LNPs were formulated at a 1:1 w/w ratio of sgRNA to Cas9 mRNA, and at an N/P ratio of about 6. Molar concentrations of lipids in the lipid component of the LNPs are expressed as mol % amine lipid/DSPC/cholesterol/PEG-2k-DMG, e.g. 50/10/38.5/1.5. The final LNPs were characterized to determine the encapsulation efficiency, polydispersity index, and average particle size according to the analytical methods provided above. Analysis of average particle size, polydispersity (PDI), total RNA content and encapsulation efficiency of RNA are shown in Table 2.
To assess whether the editing was dose responsive, experiments were performed in vivo at various LNP dose levels. […]

[4] = Table 3, guide G282, CD-1 female mice, 0.1 mpk i.v.
[5] = Table 3, guide G282, CD-1 female mice, 0.1 mpk i.v., percentage of vehicle control (TSS)

pKa [1] | Number Average [nm] [2] | PDI [2] | Z-Ave Size (nm) [2] | % E [3] | SMILES | Serum TTR % TSS (mouse TTR; mouse serum, relative to TSS control of same experiment, dose 0.03 mpk) | Serum TTR % TSS (mouse TTR; mouse serum, relative to TSS control of same experiment, dose 0.1 mpk) | Editing (TTR in HUH7 cells) | Editing Mean % Indel (mouse TTR gene) | Serum TTR (mouse TTR; [4]) | Serum TTR % TSS (mouse TTR; [5])
6.74 | – | – | – | – | CCCCC/C=C\C/C=C\CCCCCCCC(=O)OCC(COC(=O)CCCCCCC/C=C\C/C=C\CCCCC)OC(=O)CCC(CCCCCCC)OC(=O)NCCN1CCCC1 (stereo not shown) [Compound 76, 2-((4-(((2-(pyrrolidin-1l-yl)ethyl)carbamoyl)oxy)undecanoyl)oxy)propane-1,3-diyl (9Z,9′Z,12Z,12′Z)-bis(octadeca-9,12-dienoate)] | 69.72 % TSS | 12.79 % TSS | 61.2% | – | – | –
7.02 | 93.05 nm | 0.045 | 117.1 nm | 96% | CCCCC/C=C\C/C=C\CCCCCCCC(=O)OCC(COC(=O)CCCCCCC/C=C\C/C=C\CCCCC)OC(=O)CCC(CCCC)OC(=O)NCCN1CCCC1 (stereo not shown) [Compound 85, 2-((4-(((2-(pyrrolidin-1-yl)ethyl)carbamoyl)oxy)octanoyl)oxy)propane-1,3-diyl (9Z,9′Z,12Z,12′Z)-bis(octadeca-9,12-dienoate)] | – | – | 66.4% | – | – | –
5.89 | – | – | – | – | CCCCC/C=C\C/C=C\CCCCCCCC(=O)OCC(COC(=O)CCCCCCC/C=C\C/C=C\CCCCC)OC(=O)CCC(CCCCCCCCCCCC)OC(=O)OCCCN(C)CC (stereo not shown) [Compound 3, 2-((4-(((3-(ethyl(methyl)amino)propoxy)carbonyl)oxy)hexadecanoyl)oxy)propane-1,3-diyl (9Z,9′Z,12Z,12′Z)-bis(octadeca-9,12-dienoate)] | – | – | – | 23.7% | 691 µg/mL | 78% TSS
6.53 | – | – | – | – | CCCCC/C=C\C/C=C\CCCCCCCC(=O)OCC(COC(=O)CCC(CCCCCCCCCCCC)OC(=O)OCCCN(C)C)OC(=O)CCCCCCC/C=C\C/C=C\CCCCC (stereo not shown) [Compound 30, 9-dodecyl-2-methyl-7,12-dioxo-6,8,13-trioxa-2-azahexadecane-15,16-diyl (9Z,9′Z,12Z,12′Z)-bis(octadeca-9,12-dienoate)] | – | – | – | 10.4% | 841 µg/mL | 95% TSS
6.16 | 76.76 nm | 0.003 | 94.54 nm | 99% | CCCCC/C=C\C/C=C\CCCCCCCC(=O)OCC(COC(=O)CCCCCCC/C=C\C/C=C\CCCCC)OC(=O)CCC(CCCCCCCCCCCC)OC(=O)NCCN1CCCC1 (stereo not shown) [Compound 46, 2-((4-(((2-(pyrrolidin-1l-yl)ethyl)carbamoyl)oxy)hexadecanoyl)oxy)propane-1,3-diyl (9Z,9′Z,12Z,12′Z)-bis(octadeca-9,12-dienoate)] | – | – | 63.7% | – | – | –
6.51 | – | – | – | – | CCCCC/C=C\C/C=C\CCCCCCCC(=O)OCC(COC(=O)CCCCCCC/C=C\C/C=C\CCCCC)OC(=O)CCC(OC(=O)NCCN(C)CC)C1CCCCC1 (stereo not shown) [Compound 41, 2-((4-cyclohexyl-4-(((2-(ethyl(methyl)amino)ethyl)carbamoyl)oxy)butanoyl)oxy) propane-1,3-diyl (9Z,9′Z,12Z,12′Z)-bis(octadeca-9,12-dienoate)] | – | – | – | 28.8% | 393 µg/mL | 48% TSS
